Laboratory results from patent US7880007B2, “Bicyclic substituted phenyl piperidine modulators of muscarinic receptors” (Vertex Pharmaceuticals Incorporated, priority 2004, dated 2011).

How the values were obtained:
Type in all cases: cell-based
[1] = molecular target: T1, M1 muscarinic receptor (Homo sapiens, UniProt P11229); assay: Functional mobilization of intracellular calcium (FLIPR), M1-CHO cells; settings: for M1 Activity: M1-CHO cells, calcium mobilization (FLIPR)
T1 construct: expressed in transfected cells; host or cells: CHO (M1-CHO)
T1 sequence (P11229 1-460): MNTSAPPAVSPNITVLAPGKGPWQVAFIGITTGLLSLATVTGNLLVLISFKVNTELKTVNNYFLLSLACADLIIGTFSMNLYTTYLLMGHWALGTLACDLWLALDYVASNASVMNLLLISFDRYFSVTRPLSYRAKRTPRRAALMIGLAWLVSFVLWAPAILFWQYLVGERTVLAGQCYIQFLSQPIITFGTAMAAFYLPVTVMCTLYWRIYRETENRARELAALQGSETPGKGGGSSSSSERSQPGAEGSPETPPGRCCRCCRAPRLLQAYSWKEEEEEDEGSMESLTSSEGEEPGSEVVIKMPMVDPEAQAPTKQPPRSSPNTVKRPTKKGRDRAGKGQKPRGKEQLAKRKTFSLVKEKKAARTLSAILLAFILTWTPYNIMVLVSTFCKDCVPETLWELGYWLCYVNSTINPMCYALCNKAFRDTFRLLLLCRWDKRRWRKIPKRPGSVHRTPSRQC
Outline: (§1)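 Calcium mobilisation read by FLIPR over 60 s (ex 488/em 540 nm) in recombinant muscarinic CHO lines loaded with calcium dye plus 1 mM probenecid. Compounds tested as agonists alone, or as inhibitors against EC80 carbachol after 15 min pre-incubation or co-addition; 0.5% DMSO; efficacy scaled to carbachol maximal response.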

[2] = molecular target: T2, M2 muscarinic receptor (Homo sapiens, UniProt P08172); assay: Functional mobilization of intracellular calcium (FLIPR), M2-CHO cells; settings: for M2 Activity: M2-CHO cells, calcium mobilization (FLIPR)
T2 construct: expressed in transfected cells; host or cells: CHO (M2-CHO)
T2 sequence (P08172 1-466): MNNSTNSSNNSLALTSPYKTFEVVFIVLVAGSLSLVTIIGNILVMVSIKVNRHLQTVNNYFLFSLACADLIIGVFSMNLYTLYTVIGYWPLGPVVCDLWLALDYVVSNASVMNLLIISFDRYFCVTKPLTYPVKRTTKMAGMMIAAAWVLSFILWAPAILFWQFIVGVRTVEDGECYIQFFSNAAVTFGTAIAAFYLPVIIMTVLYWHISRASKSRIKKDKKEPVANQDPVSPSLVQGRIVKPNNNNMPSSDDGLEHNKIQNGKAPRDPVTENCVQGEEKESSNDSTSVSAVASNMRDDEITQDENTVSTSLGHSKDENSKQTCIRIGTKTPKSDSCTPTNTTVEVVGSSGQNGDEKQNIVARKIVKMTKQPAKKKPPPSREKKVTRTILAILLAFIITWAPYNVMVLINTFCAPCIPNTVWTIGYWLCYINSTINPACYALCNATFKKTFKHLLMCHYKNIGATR
Outline: as §1

[3] = molecular target: T3, M3 muscarinic receptor (Homo sapiens, UniProt P20309); assay: Functional mobilization of intracellular calcium (FLIPR), M3-CHO cells; settings: for M3 Activity: M3-CHO cells, calcium mobilization (FLIPR)
T3 construct: expressed in transfected cells; host or cells: CHO (M3-CHO)
Outline: as §1

[4] = molecular target: T4, M4 muscarinic receptor (Homo sapiens, UniProt P08173); assay: Functional mobilization of intracellular calcium (FLIPR), M4-CHO cells; settings: for M4 Activity: M4-CHO cells, calcium mobilization (FLIPR)
T4 construct: expressed in transfected cells; host or cells: CHO (M4-CHO)
T4 sequence (P08173 1-479): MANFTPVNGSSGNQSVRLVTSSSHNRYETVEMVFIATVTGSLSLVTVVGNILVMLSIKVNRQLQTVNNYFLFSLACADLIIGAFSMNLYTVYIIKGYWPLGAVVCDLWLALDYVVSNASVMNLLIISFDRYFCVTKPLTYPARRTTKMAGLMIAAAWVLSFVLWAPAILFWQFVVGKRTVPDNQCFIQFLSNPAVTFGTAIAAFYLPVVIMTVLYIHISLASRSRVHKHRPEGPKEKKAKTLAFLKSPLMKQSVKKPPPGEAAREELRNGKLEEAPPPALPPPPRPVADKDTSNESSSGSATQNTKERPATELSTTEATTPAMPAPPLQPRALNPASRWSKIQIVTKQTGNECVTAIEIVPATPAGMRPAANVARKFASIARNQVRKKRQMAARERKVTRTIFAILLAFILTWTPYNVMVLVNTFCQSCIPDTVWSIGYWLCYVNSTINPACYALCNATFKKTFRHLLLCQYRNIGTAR
Outline: as §1

[5] = 100% efficacy = maximum response obtained with the Carbachol control
[6] = 100% efficacy is the maximum response obtained with the Carbachol control

T3 sequence (P20309 whole entry): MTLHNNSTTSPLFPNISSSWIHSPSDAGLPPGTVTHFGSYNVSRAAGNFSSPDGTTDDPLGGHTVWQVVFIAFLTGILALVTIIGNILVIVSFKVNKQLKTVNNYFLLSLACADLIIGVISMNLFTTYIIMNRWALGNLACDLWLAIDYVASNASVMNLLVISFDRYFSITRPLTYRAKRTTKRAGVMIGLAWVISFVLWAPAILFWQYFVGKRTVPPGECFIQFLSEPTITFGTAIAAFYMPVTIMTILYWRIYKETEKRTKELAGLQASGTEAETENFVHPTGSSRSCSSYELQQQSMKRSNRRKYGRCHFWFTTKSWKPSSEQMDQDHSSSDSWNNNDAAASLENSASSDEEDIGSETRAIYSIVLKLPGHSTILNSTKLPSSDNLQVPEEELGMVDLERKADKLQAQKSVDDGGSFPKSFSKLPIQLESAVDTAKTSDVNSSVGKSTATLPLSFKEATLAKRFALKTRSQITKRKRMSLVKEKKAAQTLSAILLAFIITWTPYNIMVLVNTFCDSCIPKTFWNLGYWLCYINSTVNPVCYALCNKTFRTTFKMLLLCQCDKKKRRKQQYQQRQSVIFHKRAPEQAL

Row | Structure (SMILES) | Emax [1, 5] | M1 Activity [1] | Emax [2, 5] | M2 Activity [2] | Emax [3, 5] | M3 Activity [3] | Emax [4, 5] | M4 Activity [4] | Emax [1, 6] | Emax [2, 6] | Emax [3, 6] | Emax [4, 6]
1 | COc1ccc(F)cc1C1(O)CCN(C[C@@H]2C[C@H]3C=C[C@H]2C3)CC1 [Compound 60] | < 25% | + (activity was measured to be greater than 5.0 μM) | < 25% | + (activity was measured to be greater than 5.0 μM) | < 25% | + (activity was measured to be greater than 5.0 μM) | 25 to 100% | ++ (activity was measured to be from 1.0 μM to 5.0 μM) |  |  |  | 
2 | COc1ccc(Cl)cc1C1CCN(C2CC3CCC2C3)CC1 (stereo not drawn) [Compound 209, 1-(bicyclo[2.2.1]heptan-2-yl)-4-(5-chloro-2-methoxyphenyl)-piperidine] | 25 to 100% | ++ (activity was measured to be from 1.0 μM to 5.0 μM) | 25 to 100% | ++ (activity was measured to be from 1.0 μM to 5.0 μM) | < 25% | + (activity was measured to be greater than 5.0 μM) | 25 to 100% | +++ (activity was measured to be less than 1.0 μM) |  |  |  | 
3 | COc1ccccc1C1CCN(C2CCC(C)CC2)CC1 (stereo not drawn) [Compound 158] | 25 to 100% | + (activity was measured to be greater than 5.0 μM) | < 25% | + (activity was measured to be greater than 5.0 μM) | < 25% | + (activity was measured to be greater than 5.0 μM) | 25 to 100% | +++ (activity was measured to be less than 1.0 μM) |  |  |  | 
4 | COc1ccc(-c2ccc(OC)c(C3CCN([C@@H]4C[C@H]5CC[C@H]4C5)CC3)c2)cc1 [Compound 393] |  | + (activity was measured to be greater than 5.0 μM) |  | + (activity was measured to be greater than 5.0 μM) |  | + (activity was measured to be greater than 5.0 μM) |  | + (activity was measured to be greater than 5.0 μM) | < 25% | < 25% | < 25% | 25 to 100%
5 | CCC1(O)CCC(N2CCC(c3cc(Cl)ccc3OC)CC2)CC1 (stereo not drawn) [Compound 324] | < 25% | + (activity was measured to be greater than 5.0 μM) | < 25% | + (activity was measured to be greater than 5.0 μM) | < 25% | + (activity was measured to be greater than 5.0 μM) | 25 to 100% | +++ (activity was measured to be less than 1.0 μM) |  |  |  | 
6 | COc1ccccc1C1CCN(C2CC3CCC2C3)CC1 (stereo not drawn) [Compound 79] | 25 to 100% | + (activity was measured to be greater than 5.0 μM) | < 25% | + (activity was measured to be greater than 5.0 μM) | < 25% | + (activity was measured to be greater than 5.0 μM) | 25 to 100% | +++ (activity was measured to be less than 1.0 μM) |  |  |  | 
7 | CNC(=O)c1ccc(-c2ccc(OC)c(C3CCN(C4CCOCC4)CC3)c2)cc1 [Compound 285] | < 25% | + (activity was measured to be greater than 5.0 μM) | < 25% | + (activity was measured to be greater than 5.0 μM) | < 25% | + (activity was measured to be greater than 5.0 μM) | < 25% | + (activity was measured to be greater than 5.0 μM) |  |  |  | 
8 | COc1ccc(Cl)cc1C1CCN(C2CCC3(CC2)OCCO3)CC1 [Compound 331, 4-(5-chloro-2-methoxyphenyl)-1-(1,4-dioxaspiro[4.5]decan-8-yl)piperidine] | 25 to 100% | + (activity was measured to be greater than 5.0 μM) | < 25% | + (activity was measured to be greater than 5.0 μM) | < 25% | + (activity was measured to be greater than 5.0 μM) | 25 to 100% | +++ (activity was measured to be less than 1.0 μM) |  |  |  | 
9 | COc1ccc(-c2ccccc2C2CCN([C@H]3C[C@H]4CC[C@H]3C4)CC2)c(OC)c1 [Compound 139] | 25 to 100% | + (activity was measured to be greater than 5.0 μM) | < 25% | + (activity was measured to be greater than 5.0 μM) | < 25% | + (activity was measured to be greater than 5.0 μM) | 25 to 100% | ++ (activity was measured to be from 1.0 μM to 5.0 μM) |  |  |  | 
10 | Cc1ccc(F)cc1C1CCN([C@H]2C[C@H]3CC[C@H]2C3)CC1 [Compound 212] | 25 to 100% | + (activity was measured to be greater than 5.0 μM) | < 25% | + (activity was measured to be greater than 5.0 μM) | < 25% | + (activity was measured to be greater than 5.0 μM) | 25 to 100% | +++ (activity was measured to be less than 1.0 μM) |  |  |  | 
11 | COc1ccccc1C1CCN(C2CC3CCC(C3)C2)CC1 (stereo not drawn) [Compound 169] | 25 to 100% | ++ (activity was measured to be from 1.0 μM to 5.0 μM) | < 25% | + (activity was measured to be greater than 5.0 μM) | < 25% | + (activity was measured to be greater than 5.0 μM) | 25 to 100% | +++ (activity was measured to be less than 1.0 μM) |  |  |  | 
12 | COc1ccccc1-c1ccccc1C1CCN([C@H]2C[C@H]3CC[C@H]2C3)CC1 [Compound 420] |  | + (activity was measured to be greater than 5.0 μM) |  | + (activity was measured to be greater than 5.0 μM) |  | + (activity was measured to be greater than 5.0 μM) |  | ++ (activity was measured to be from 1.0 μM to 5.0 μM) | 25 to 100% | < 25% | < 25% | 25 to 100%
